Measured values from patent US20230286973A1, “PROTEIN SECRETION INHIBITORS” (KEZAR LIFE SCIENCES, priority 2020, published 2023).

Tests used:
[1] = system: multiple myeloma cell line NCI-H929; assay: H929 Cell Viability Assay; assay type: cell-based, human; conditions: Homo sapiens, NCI-H929, 48 h, NCI-H929 cells, Celltiter-Glo
How it was run: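 NCI-H929 cells, resuspended in RPMI 1640 with 10% FBS and 2 mM glutamine, were treated with compound dilutions in DMSO/media and incubated 48 hours at 37° C, 5% CO2. Viability was read by CellTiter-Glo luminescence. Compounds drawn without stereochemistry were tested as stereoisomer mixtures.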

[2] = system: TNFα-FL/Gaussia Luciferase; assay: Dox Induced TNFα-FL-Gluc Assay; assay type: cell-based; conditions: for IC50: 24 hr Dox induction, 293FRT/TO cells, read-out: 24 hr Dox Inducible TNFaFLGluc 293FRT/TO: Mean IC50; for 24 hr Dox Inducible TNFaFLGluc 293FRT/TO: TNF/PD1: ratio of TNFaFLGluc IC50 to PD1ssGluc IC50
How it was run: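 Flp-In 293 T-REx cells stably expressing full-length TNFα (aa 1-233) fused at its C-terminus to Gaussia luciferase under tetracycline-regulated control were plated the day before assay. Compound dilutions in DMSO/media containing doxycycline were added and incubated at 37 °C, 5% CO2. Unspecified stereochemistry denotes stereoisomer mixtures.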

[3] = system: multiple myeloma cell line U266B1; assay: U266 Cell Viability Assay; assay type: cell-based, human; conditions: Homo sapiens, U-266, 48 h, U266B1 cells, Celltiter-Glo
How it was run: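 Cells grown in RPMI 1640 with 10% FBS, 2 mM glutamine and penicillin/streptomycin were exposed to compound dilutions in DMSO/media for 48 hours at 37° C., 5% CO2. Viability was read by CellTiter-Glo luminescence. Undefined stereocentres mean data for stereoisomer mixtures.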

[4] = Liver Microsome Stability Assay (rat); conditions: rat liver microsomes, with NADPH, 1.0 uM compound
Experimental: (§1) Stability of a compound was assessed in the presence of liver microsomes from various sources—mouse, rat, monkey and human liver microsomes. 1.0 uM compound, 0.4% DMSO in 0.1 M Potassium Phosphate with 1.0 mg/mL liver microsomes, were incubated at 37° C. with or without 1 mM NADPH. The samples were quenched at 0, and 30 minutes.

[5] = Liver Microsome Stability Assay (human); conditions: human liver microsomes, with NADPH, 1.0 uM compound
Experimental: as §1

[6] = system: PD1-ss+10aa/Gaussia Luciferase; assay: Dox-Induced PD1-ss-Gluc Assay; assay type: cell-based; conditions: 24 hr Dox induction; 293FRT/TO cells; read-out: 24 hr Dox Inducible PD1ssGluc 293FRT/TO: Mean IC50
How it was run: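 Doxycycline-induced expression of a PD1-ss+10aa/Gaussia luciferase reporter is measured in stable Flp-In 293 T-REx cells. Compound dilutions containing doxycycline are added one day after plating and incubated at 37 °C, 5% CO2. Values for unassigned stereocentres refer to stereoisomer mixtures.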

[7] = system: IL-2-FL/Gaussia Luciferase; assay: Dox Induced IL2-FL-Gluc Assay; assay type: cell-based; conditions: for IC50: 24 hr Dox induction, 293FRT/TO cells, read-out: 24 hr Dox Inducible IL2FLGluc 293FRT/TO: Mean IC50; for 24 hr Dox Inducible IL2FLGluc 293FRT/TO: IL2/PD1: ratio of IL2FLGluc IC50 to PD1ssGluc IC50
How it was run: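 Flp-In 293 T-REx cells stably carrying doxycycline-inducible full-length IL-2 (aa 1-153) fused at its C-terminus to Gaussia luciferase, selected with hygromycin and blasticidin. Cells were plated the day before, then treated with compounds in DMSO/media containing doxycycline at 37° C, 5% CO2.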

[8] = Liver Microsome Stability Assay (mouse); conditions: mouse liver microsomes, with NADPH, 1.0 uM compound
Experimental: as §1

[9] = Liver Microsome Stability Assay (monkey); conditions: monkey liver microsomes, with NADPH, 1.0 uM compound
Experimental: as §1

[10] = system: HER3-ss+4aa/Gaussia Luciferase; assay: Dox-Induced Her3-ss-Gluc Assay; assay type: cell-based; conditions: 24 hr Dox induction; 293FRT/TO cells; read-out: 24 hr Dox Inducible Her3(ss + 4)Gluc 293FRT/TO: Mean IC50
How it was run: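 Stable Flp-In 293 T-REx line expressing Gaussia luciferase fused to the HER3 signal sequence plus 4 amino acids under tetracycline-regulated (T-REx) control. Cells plated the day before, then treated with compound dilutions in DMSO/media containing doxycycline and incubated at 37° C., 5% CO2.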

Row | EC50 [1] | IC50 [2] | EC50 [3] | Liver Microsome Stability (Multiple Species): Rat - % Remaining after 30 min w/NADPH [4] | Liver Microsome Stability (Multiple Species): Human - % Remaining after 30 min w/NADPH [5] | IC50 [6] | IC50 [7] | Liver Microsome Stability (Multiple Species): Mouse - % Remaining after 30 min w/NADPH [8] | Liver Microsome Stability (Multiple Species): Monkey - % Remaining after 30 min w/NADPH [9] | IC50 [10] | Compound | 24 hr Dox Inducible TNFaFLGluc 293FRT/TO: TNF/PD1 [2] | 24 hr Dox Inducible IL2FLGluc 293FRT/TO: IL2/PD1 [7]
1 | 4410 nM | 3700 nM | 7800 nM | 82.1% | 51.8% | 136 nM | 366 nM | 95.6% | 36.1% | 148 nM | C[C@H](N)c1ccc(N2CCC[C@@H]2c2csc(NC(=O)c3cccn3Cc3ccncc3)n2)cc1 [Compound A71, N-(4-((R)-1-(4-((S)-1-aminoethyl)phenyl)pyrrolidin-2-yl)thiazol-2-yl)-1-(pyridin-4-ylmethyl)-1H-pyrrole-2-carboxamide] | 27.2 | 2.7
2 | 3770 nM | 2650 nM | 6550 nM | 94.1% | 23.9% | 141 nM | 316 nM | 72.3% | 37.8% | 197 nM | C[C@@H](N)c1ccc(N2CCC[C@@H]2c2csc(NC(=O)c3cccn3Cc3ccnc(F)c3)n2)cc1 [Compound A72, N-(4-((R)-1-(4-((R)-1-aminoethyl)phenyl)pyrrolidin-2-yl)thiazol-2-yl)-1-((2-fluoropyridin-4-yl)methyl)-1H-pyrrole-2-carboxamide] | 18.8 | 2.2
3 | 3750 nM | 350 nM | > 25000 nM | 15% | 0.1% | 26.6 nM | 88.5 nM | 0.14% | 0.08% | 23.6 nM | CC(=O)N[C@@H](C)c1ccc(N2CCC[C@@H]2c2csc(NC(=O)c3cccn3Cc3ccncc3)n2)cc1 [Compound A73, N-(4-((R)-1-(4-((S)-1-acetamidoethyl)phenyl)pyrrolidin-2-yl)thiazol-2-yl)-1-(pyridin-4-ylmethyl)-1H-pyrrole-2-carboxamide] | 13.2 | 3.3
4 | 3870 nM | 2800 nM | 6130 nM | 98.3% | 38.6% | 118 nM | 367 nM | 94.3% | 38.5% | 232 nM | C[C@H](N)c1ccc(N2CCC[C@@H]2c2csc(NC(=O)c3cccn3Cc3ccnc(F)c3)n2)cc1 [Compound A74, N-(4-((R)-1-(4-((S)-1-aminoethyl)phenyl)pyrrolidin-2-yl)thiazol-2-yl)-1-((2-fluoropyridin-4-yl)methyl)-1H-pyrrole-2-carboxamide] | 23.7 | 3.1
5 | 251 nM | 71 nM | > 25000 nM | 0.05% | 6.4% | 2.5 nM | 8.11 nM | 3.74% | 0.87% | 0.6 nM | O=C1CCc2cc(N3CCC[C@@H]3c3csc(NC(=O)c4cccn4Cc4ccncc4)n3)ccc2N1 [Compound A75, (R)-N-(4-(1-(2-oxo-1,2,3,4-tetrahydroquinolin-6-yl)pyrrolidin-2-yl)thiazol-2-yl)-1-(pyridin-4-ylmethyl)-1H-pyrrole-2-carboxamide] | 28.4 | 3.2
6 | 22400 nM | 6660 nM | > 25000 nM | 4.99% | 2.44% | 292 nM | 1510 nM | 11% | 1.43% | 830 nM | CN(C)c1cccc(-c2csc(NC(=O)c3cccn3Cc3ccncc3)n2)c1 [Compound A76, N-(4-(3-(dimethylamino)phenyl)thiazol-2-yl)-1-(pyridin-4-ylmethyl)-1H-pyrrole-2-carboxamide] | 22.9 | 5.2
7 | 60.1 nM | 19.1 nM | > 25000 nM | 38.1% | 72.8% | 1.84 nM | 3.22 nM | 79.6% | 22.4% | 3.62 nM | CCc1ccc(N2CCC[C@@H]2c2csc(NC(=O)c3cccn3Cc3ccnc(F)c3)n2)cc1 [Compound A77, (R)-N-(4-(1-(4-ethylphenyl)pyrrolidin-2-yl)thiazol-2-yl)-1-((2-fluoropyridin-4-yl)methyl)-1H-pyrrole-2-carboxamide] | 10.4 | 1.8
8 | 495 nM | 159 nM | > 25000 nM | 3.42% | 6.01% | 13.2 nM | 30.1 nM | 6.09% | 3.13% | 27.7 nM | O=C(Nc1nc([C@H]2CCCN2c2ccc(CCO)cc2)cs1)c1cccn1Cc1ccnc(F)c1 [Compound A78, (R)-1-((2-fluoropyridin-4-yl)methyl)-N-(4-(1-(4-(2-hydroxyethyl)phenyl)pyrrolidin-2-yl)thiazol-2-yl)-1H-pyrrole-2-carboxamide] | 12 | 2.3
9 | 345 nM | 171 nM | > 25000 nM | 37.7% | 5.48% | 10.8 nM | 29.7 nM | 5.88% | 0.78% | 23.2 nM | CC(=O)N1CCC(Oc2ccc(N3CCC[C@@H]3c3csc(NC(=O)c4cccn4Cc4ccnc(F)c4)n3)cc2)C1 (stereo partly drawn) [Compound A79, N-(4-((2R)-1-(4-((1-acetylpyrrolidin-3-yl)oxy)phenyl)pyrrolidin-2-yl)thiazol-2-yl)-1-((2-fluoropyridin-4-yl)methyl)-1H-pyrrole-2-carboxamide] | 15.9 | 2.8
